According to US10556914B2, “Substituted isoxazolopyridazinones and isothiazolopyridazinones and methods of use” (AbbVie Inc., priority 2015, dated 2020):

Biological target: GABA-B receptor (Rattus norvegicus (Rat), UniProt O88871+Q9Z0U4)
Test: [35S]GTPgS Binding Assay (rat brain cortex membranes, native receptor)
Type: biochemical
Conditions: rat cortical membranes; in the presence of 1 μM GABA (EC25); basal binding 0%, maximal binding (1 mM GABA) 100%
Protocol: Preparation of Rat Brain Membranes for Native Receptor Assays
Membranes from rat brain cortex were prepared as described in detail by Olpe et al. and stored at concentrations of 1.66 mg/mL protein at −80° C. until required. (Olpe, H.-R, et al. Eur J Pharmacol 1990; 187: 27-38).
[^35S]GTPgS Binding Assay
The samples were incubated at room temperature for 60 minutes on a shaker. The incubation was stopped by rapid vacuum filtration over glass-fiber filter plates (UniFilter-96 well, GF/B membrane plates, PerkinElmer) using a 96-well plate harvester (TOMTEK© Harvester). The UniFilter plate was washed five times with ice-cold wash buffer (50 mM Tris-HCl buffer, pH 7.7, 10 mM MgCl2, and 100 mM NaCl. After filtration the plate was dried for 90 minutes at 55° C. The plates were closed on the bottom with black sealing membranes, and liquid scintillation cocktail (35 μL, Betaplate Scint, PerkinElmer) was added to each well. After sealing the top of the plate, an additional incubation step of 90 minutes at room temperature followed before measuring the plate. The amount of membrane-bound [^35S]GTPgS was measured using a 96-well plate reader (Microbeta®, PerkinElmer). Nonspecific binding was measured in the presence of unlabeled 10 μM of GTPgS (Millipore) and without GABA. Basal binding was measured in the absence of 1 μM GABA, and maximal binding was measured in the presence of GABA using 1 mM GABA concentrations.
Data analysis. The concentration-response curves of compounds of the present disclosure in the presence of EC25 of GABA-B receptor agonist were generated using the GraphPad Prism® program (GraphPad Software, San Diego, Calif.). Data was normalized using basal binding as 0% and maximal binding as 100%. The curves were fitted by nonlinear regression allowing determination of EC50 values from sigmoidal dose-response curves. Each curve was performed using triplicate sample per date point and 10 concentrations.

GABA-B receptor, sequence (Q9Z0U4 17-960): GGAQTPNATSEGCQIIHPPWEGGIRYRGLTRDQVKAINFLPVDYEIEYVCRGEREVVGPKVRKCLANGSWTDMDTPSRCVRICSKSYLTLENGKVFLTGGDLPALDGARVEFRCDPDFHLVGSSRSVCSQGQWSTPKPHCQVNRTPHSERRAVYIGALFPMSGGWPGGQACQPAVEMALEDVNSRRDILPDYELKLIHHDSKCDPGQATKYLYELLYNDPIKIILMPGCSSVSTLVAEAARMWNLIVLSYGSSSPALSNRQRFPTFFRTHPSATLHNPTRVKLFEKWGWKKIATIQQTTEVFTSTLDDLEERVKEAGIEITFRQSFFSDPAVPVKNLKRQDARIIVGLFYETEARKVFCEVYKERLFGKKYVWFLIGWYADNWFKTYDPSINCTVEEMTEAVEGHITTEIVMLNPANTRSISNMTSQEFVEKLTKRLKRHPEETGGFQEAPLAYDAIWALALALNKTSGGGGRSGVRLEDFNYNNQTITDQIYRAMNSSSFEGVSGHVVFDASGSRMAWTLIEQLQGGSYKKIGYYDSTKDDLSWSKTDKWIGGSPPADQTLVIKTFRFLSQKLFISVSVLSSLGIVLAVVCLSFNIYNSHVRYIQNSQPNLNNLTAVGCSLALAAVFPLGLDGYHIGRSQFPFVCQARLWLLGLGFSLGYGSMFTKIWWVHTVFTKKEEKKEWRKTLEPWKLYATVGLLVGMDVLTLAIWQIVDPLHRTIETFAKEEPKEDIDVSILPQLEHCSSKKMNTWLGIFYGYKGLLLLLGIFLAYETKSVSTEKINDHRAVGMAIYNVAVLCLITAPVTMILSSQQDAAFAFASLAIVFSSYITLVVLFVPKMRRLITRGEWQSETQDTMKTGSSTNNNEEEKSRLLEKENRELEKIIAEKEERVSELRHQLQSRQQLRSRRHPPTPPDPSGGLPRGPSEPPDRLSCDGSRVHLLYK
GABA-B receptor, sequence (O88871 41-940): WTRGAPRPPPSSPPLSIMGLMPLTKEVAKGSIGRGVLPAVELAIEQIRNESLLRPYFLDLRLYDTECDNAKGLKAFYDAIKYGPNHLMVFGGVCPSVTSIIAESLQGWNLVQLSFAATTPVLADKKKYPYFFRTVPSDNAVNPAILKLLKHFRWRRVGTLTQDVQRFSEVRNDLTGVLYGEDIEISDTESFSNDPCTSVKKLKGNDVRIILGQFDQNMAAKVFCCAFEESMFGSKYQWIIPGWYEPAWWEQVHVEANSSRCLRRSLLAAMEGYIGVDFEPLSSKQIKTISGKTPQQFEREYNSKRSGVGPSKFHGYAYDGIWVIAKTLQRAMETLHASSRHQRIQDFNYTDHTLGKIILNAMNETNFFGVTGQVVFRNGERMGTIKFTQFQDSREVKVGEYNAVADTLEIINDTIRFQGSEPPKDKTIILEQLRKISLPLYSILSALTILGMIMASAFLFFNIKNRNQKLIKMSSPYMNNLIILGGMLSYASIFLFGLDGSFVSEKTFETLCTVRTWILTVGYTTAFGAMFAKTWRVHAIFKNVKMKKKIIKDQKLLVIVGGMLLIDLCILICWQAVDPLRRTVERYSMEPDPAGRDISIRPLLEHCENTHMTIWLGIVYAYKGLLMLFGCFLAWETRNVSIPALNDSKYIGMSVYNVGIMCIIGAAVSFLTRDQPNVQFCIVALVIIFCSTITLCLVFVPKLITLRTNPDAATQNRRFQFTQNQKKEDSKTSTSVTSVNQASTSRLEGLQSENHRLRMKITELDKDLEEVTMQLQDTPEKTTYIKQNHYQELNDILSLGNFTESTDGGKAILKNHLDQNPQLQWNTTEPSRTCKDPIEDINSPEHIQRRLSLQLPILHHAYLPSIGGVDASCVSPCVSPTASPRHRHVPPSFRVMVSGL

In the case of “7-(4-fluorophenyl)-3-methyl-5-(pyridin-4-ylmethyl)[1,2]oxazolo[4,5-d]pyridazin-4(5H)-one [Example 74]”, the EC50 is reported as 3.41 µM.
With Cc1nn([C@@H](C)c2ccc(Cl)cc2)c(=O)c2c(C)noc12 (single isomer, unassigned) [Example 31] the EC50 was 1.81 µM.
Cc1nn([C@H](C)c2ccc(Cl)cc2)c(=O)c2c(C)noc12 (single isomer, unassigned) [Example 58] was tested, and the EC50 was over 10 µM.
In the case of CCc1nn([C@H](c2ccccc2)c2ccc(Cl)cc2)c(=O)c2c(CC)noc12 (single isomer, unassigned) [Example 75], the EC50 is reported as 1.76 µM.
In the case of CCc1nn([C@@H](c2ccccc2)c2ccc(Cl)cc2)c(=O)c2c(CC)noc12 (single isomer, unassigned) [Example 89], the EC50 is reported as 1.39 µM.
Molecule COc1ccc(NC(C)=O)cc1-c1nn([C@@H](C)c2ccc(Cl)cc2)c(=O)c2c(C3CC3)noc12 [Example 1, N-(3-{5-[(1S)-1-(4-chlorophenyl)ethyl]-3-cyclopropyl-4-oxo-4,5-dihydro[1,2]oxazolo[4,5-d]pyridazin-7-yl}-4-methoxyphenyl)acetamide] has an EC50 of 0.051 µM.
In the case of COc1ccc(-c2nn(Cc3ccc(Cl)cc3)c(=O)c3c(C)noc23)cc1 [Example 2, 5-(4-chlorobenzyl)-7-(4-methoxyphenyl)-3-methyl[1,2]oxazolo[4,5-d]pyridazin-4(5H)-one], the EC50 is reported as over 10 µM.
Work on COc1ccc(NC(C)=O)cc1-c1nn([C@H](C)c2ccc(Cl)cc2)c(=O)c2c(C3CC3)noc12 [Example 3, N-(3-{5-[(1R)-1-(4-chlorophenyl)ethyl]-3-cyclopropyl-4-oxo-4,5-dihydro[1,2]oxazolo[4,5-d]pyridazin-7-yl}-4-methoxyphenyl)acetamide] yielded an EC50 of over 10 µM.
Cc1noc2c(-c3cc(F)nc(F)c3)nn(C(C)c3ccc(Cl)cc3)c(=O)c12 (stereo not shown) [Example 4, 5-[1-(4-chlorophenyl)ethyl]-7-(2,6-difluoropyridin-4-yl)-3-methyl[1,2]oxazolo[4,5-d]pyridazin-4(5H)-one] gave an EC50 of 1.66 µM.
For Cc1noc2c(-c3cc(Cl)ccc3N)nn(C(C)c3ccc(Cl)cc3)c(=O)c12 (stereo not shown) [Example 6, 7-(2-amino-5-chlorophenyl)-5-[1-(4-chlorophenyl)ethyl]-3-methyl[1,2]oxazolo[4,5-d]pyridazin-4(5H)-one], the EC50 was 1.96 µM.
Molecule Cc1noc2c(-c3cccnc3Cl)nn(C(C)c3ccc(Cl)cc3)c(=O)c12 (stereo not shown) [Example 7, 5-[1-(4-chlorophenyl)ethyl]-7-(2-chloropyridin-3-yl)-3-methyl[1,2]oxazolo[4,5-d]pyridazin-4(5H)-one] has an EC50 of 0.6 µM.
CC(=O)Nc1cc(-c2nn(Cc3ccc(Cl)cc3)c(=O)c3c(C)noc23)ccc1F [Example 8] was tested, and the EC50 was 2.11 µM.
COc1ccc(OC)c(-c2nn(CCc3ccc(Cl)cc3)c(=O)c3c(C)noc23)c1 [Example 10, 5-[2-(4-chlorophenyl)ethyl]-7-(2,5-dimethoxyphenyl)-3-methyl[1,2]oxazolo[4,5-d]pyridazin-4(5H)-one] was tested, and the EC50 was 1.06 µM.
Cc1noc2c(-c3cc(C(F)(F)F)ccc3N)nn(C(C)c3ccc(Cl)cc3)c(=O)c12 (stereo not shown) [Example 11, 7-[2-amino-5-(trifluoromethyl)phenyl]-5-[1-(4-chlorophenyl)ethyl]-3-methyl[1,2]oxazolo[4,5-d]pyridazin-4(5H)-one] was tested, and the EC50 was over 10 µM.
Cc1noc2c(-c3ccc4cc[nH]c4c3)nn(C(C)c3ccc(Cl)cc3)c(=O)c12 (stereo not shown) [Example 12, 5-[1-(4-chlorophenyl)ethyl]-7-(1H-indol-6-yl)-3-methyl[1,2]oxazolo[4,5-d]pyridazin-4(5H)-one] showed an EC50 of 0.347 µM.
With Cc1noc2c(-c3ccccc3N)nn(C(C)c3ccc(Cl)cc3)c(=O)c12 (stereo not shown) [Example 14, 7-(2-aminophenyl)-5-[1-(4-chlorophenyl)ethyl]-3-methyl[1,2]oxazolo[4,5-d]pyridazin-4(5H)-one] the EC50 was 2.13 µM.
With Cc1ccc(O)cc1-c1nn(C(C)c2ccc(Cl)cc2)c(=O)c2c(C)noc12 (stereo not shown) [Example 16, 5-[1-(4-chlorophenyl)ethyl]-7-(5-hydroxy-2-methylphenyl)-3-methyl[1,2]oxazolo[4,5-d]pyridazin-4(5H)-one] the EC50 was 0.222 µM.
With CC(=O)Nc1ccc(C)c(-c2nn(C(C)c3ccc(Cl)cc3)c(=O)c3c(C)noc23)c1 (stereo not shown) [Example 18, N-(3-{5-[1-(4-chlorophenyl)ethyl]-3-methyl-4-oxo-4,5-dihydro[1,2]oxazolo[4,5-d]pyridazin-7-yl}-4-methylphenyl)acetamide] the EC50 was 0.389 µM.
Molecule Cc1noc2c(-c3ccc(F)cc3)nn(Cc3ccc(C(F)(F)F)cc3)c(=O)c12 [Example 19, 7-(4-fluorophenyl)-3-methyl-5-[4-(trifluoromethyl)benzyl][1,2]oxazolo[4,5-d]pyridazin-4(5H)-one] has an EC50 of 1.58 µM.
For COc1ccc(OC)c(-c2nn(C(C)c3ccc(Cl)cc3)c(=O)c3c(C)noc23)c1 (stereo not shown) [Example 21, 5-[1-(4-chlorophenyl)ethyl]-7-(2,5-dimethoxyphenyl)-3-methyl[1,2]oxazolo[4,5-d]pyridazin-4(5H)-one], the EC50 was 0.229 µM.
Cc1noc2c(-c3cncc(F)c3)nn(C(C)c3ccc(Cl)cc3)c(=O)c12 (stereo not shown) [Example 22, 5-[1-(4-chlorophenyl)ethyl]-7-(5-fluoropyridin-3-yl)-3-methyl[1,2]oxazolo[4,5-d]pyridazin-4(5H)-one] showed an EC50 of 2.69 µM.
Cc1noc2c(-c3cccc(F)c3)nn(Cc3ccc(Cl)cc3)c(=O)c12 [Example 23, 5-(4-chlorobenzyl)-7-(3-fluorophenyl)-3-methyl[1,2]oxazolo[4,5-d]pyridazin-4(5H)-one] was tested, and the EC50 was over 10 µM.
With Cc1noc2c(-c3cccc(NS(C)(=O)=O)c3)nn(C(C)c3ccc(Cl)cc3)c(=O)c12 (stereo not shown) [Example 24, N-(3-{5-[1-(4-chlorophenyl)ethyl]-3-methyl-4-oxo-4,5-dihydro[1,2]oxazolo[4,5-d]pyridazin-7-yl}phenyl)methanesulfonamide] the EC50 was 1.85 µM.
Work on COCc1noc2c(-c3cccc(NC(C)=O)c3)nn(Cc3ccc(Cl)cc3)c(=O)c12 [Example 27, N-{3-[5-(4-chlorobenzyl)-3-(methoxymethyl)-4-oxo-4,5-dihydro[1,2]oxazolo[4,5-d]pyridazin-7-yl]phenyl}acetamide] yielded an EC50 of 3.2 µM.
With Cc1noc2c(-c3ccc(F)cc3)nn(Cc3ccc(Cl)c(C(F)(F)F)c3)c(=O)c12 [Example 28, 5-[4-chloro-3-(trifluoromethyl)benzyl]-7-(4-fluorophenyl)-3-methyl[1,2]oxazolo[4,5-d]pyridazin-4(5H)-one] the EC50 was 3.47 µM.
For CC(=O)Nc1cccc(-c2nn([C@H](C)c3ccc(Cl)cc3)c(=O)c3c(C)noc23)c1 [Example 34, N-(3-{5-[(1R)-1-(4-chlorophenyl)ethyl]-3-methyl-4-oxo-4,5-dihydro[1,2]oxazolo[4,5-d]pyridazin-7-yl}phenyl)acetamide], the EC50 was 4.81 µM.
CC(=O)Nc1ccc(C)c(-c2nn([C@H](C)c3ccc(C(F)(F)F)cc3)c(=O)c3c(C)noc23)c1 [Example 35, N-[4-methyl-3-(3-methyl-4-oxo-5-{(1R)-1-[4-(trifluoromethyl)phenyl]ethyl}-4,5-dihydro[1,2]oxazolo[4,5-d]pyridazin-7-yl)phenyl]acetamide] was tested, and the EC50 was 0.562 µM.
CCc1noc2c(-c3cc(OC)ccc3OC)nn(Cc3ccc(Cl)cc3)c(=O)c12 [Example 36, 5-(4-chlorobenzyl)-7-(2,5-dimethoxyphenyl)-3-ethyl[1,2]oxazolo[4,5-d]pyridazin-4(5H)-one] was tested, and the EC50 was 0.895 µM.
In the case of COc1ccc(-c2nn(Cc3ccc(F)c(C(F)(F)F)c3)c(=O)c3c(C)noc23)c(OC)c1 [Example 37, 7-(2,4-dimethoxyphenyl)-5-[4-fluoro-3-(trifluoromethyl)benzyl]-3-methyl[1,2]oxazolo[4,5-d]pyridazin-4(5H)-one], the EC50 is reported as 3.67 µM.
COc1ccc(C(=O)N(C)C)cc1-c1nn(C(C)c2ccc(Cl)cc2)c(=O)c2c(C)noc12 (stereo not shown) [Example 38] gave an EC50 of 0.643 µM.
With COc1ccc(NC(C)=O)cc1-c1nn(C(C)c2ccc(Cl)cc2)c(=O)c2c(C)noc12 (stereo not shown) [Example 39, N-(3-{5-[1-(4-chlorophenyl)ethy]-3-methyl-4-oxo-4,5-dihydro[1,2]oxazolo[4,5-d]pyridazin-7-yl}-4-methoxyphenyl)acetamide] the EC50 was 0.105 µM.
In the case of COc1ccc(NC(C)=O)cc1-c1nn([C@H](C)c2ccc(Cl)cc2)c(=O)c2c(C)noc12 [Example 40, N-(3-{5-[(1R)-1-(4-chlorophenyl)ethyl]-3-methyl-4-oxo-4,5-dihydro[1,2]oxazolo[4,5-d]pyridazin-7-yl}-4-methoxyphenyl)acetamide], the EC50 is reported as over 10 µM.
With Cc1noc2c(-c3ccc(F)c(F)c3)nn(Cc3ccc(Cl)cc3)c(=O)c12 [Example 42, 5-(4-chlorobenzyl)-7-(3,4-difluorophenyl)-3-methyl[1,2]oxazolo[4,5-d]pyridazin-4(5H)-one] the EC50 was 9.64 µM.
With COc1ccc(NC(C)=O)cc1-c1nn(Cc2ccc(Cl)cc2)c(=O)c2c(C)noc12 [Example 45, N-{3-[5-(4-chlorobenzyl)-3-methyl-4-oxo-4,5-dihydro[1,2]oxazolo[4,5-d]pyridazin-7-yl]-4-methoxyphenyl}acetamide] the EC50 was 0.376 µM.
